Read-outs that look alike come from different tables or passages of the source.
Columns and labels:
FANGCYP6P9b [1] = target: T1, FANGCYP6P9b (Anopheles funestus, UniProt A0A0S1RZ61)
Description: (§1) Reactions were performed in triplicates both for +NADPH (experimental tubes) and–NADPH (negative control). K m and V max were established from the plot of substrate concentrations against the initial velocities and fitting of the data to the Michaelis-Menten module using the least squares non-linear regression, as described in the GraphPad Prism 6.03 Software (GraphPad Inc., La Jolla, CA, USA).

FANGCYP6P9a [2] = target: T2, FANGCYP6P9a (Anopheles funestus, UniProt K7Z0P3)
Description: as §1

BENCYP6P9b [3] = target: T3, BENCYP6P9b (Anopheles funestus, UniProt A0A0S1S7Y0); assay: Steady-state kinetics of pyrethroid metabolism; type: biochemical
Description: as §1

UGANCYP6P9b [4] = target: T4, UGANCYP6P9b (Anopheles funestus, UniProt A0A0S1S7Y0); assay: Steady-state kinetics of pyrethroid metabolism; type: biochemical
Description: as §1

MALCYP6P9b [5] = target: T5, MALCYP6P9b (Anopheles funestus, UniProt B5AII7); assay: Steady-state kinetics of pyrethroid metabolism; type: biochemical
Description: as §1

UGANCYP6P9a [6] = target: T6, UGANCYP6P9a (Anopheles funestus, UniProt B5AII6); assay: Steady-state kinetics of pyrethroid metabolism; type: biochemical
Description: as §1

MALCYP6P9a [7] = target: T7, MALCYP6P9a (Anopheles funestus, UniProt B5AII6); assay: Steady-state kinetics of pyrethroid metabolism; type: biochemical
Description: as §1

BENCYP6P9a [8] = target: T8, BENCYP6P9a (Anopheles funestus, UniProt A0A0S1RZ75); assay: Steady-state kinetics of pyrethroid metabolism; type: biochemical
Description: as §1

[9] = tested on: transgenic flies over-expressing FANGCYP6P9a; conditions: 2% permethrin paper
Description: (§2) Primers used for this PCR are given in S8 Table. PCR conditions, cloning techniques, construction of transgenic flies and expression of candidate genes was conducted as described in previous studies, with more details provided in S1 Text. For control group, flies with the same background as the UAS transgenic lines but devoid of the UAS construct with the candidate gene were crossed with the driver Actin5C-GAL4 line to generate Actin5C-GAL4-null flies.
(§3) These papers were then rolled and introduced into 45 cc plastic vials. The vials were then plugged with cotton wool soaked in 5% sucrose. 20–25 (2–4 days old, post-eclosion F1 females) were selected for the bioassays and introduced into the vials. Mortality plus knockdown was scored after 1 hr, 2 hrs, 3 hrs, 6 hrs, 12 hrs and 24 hrs post-exposure to the discriminating dose of the insecticides.

[10] = tested on: transgenic flies over-expressing FANGCYP6P9b; conditions: 2% permethrin paper
Description: as §2, §3

[11] = tested on: transgenic flies over-expressing MALCYP6P9b; conditions: 2% permethrin paper
Description: as §2, §3

[12] = tested on: transgenic flies over-expressing MALCYP6P9a; conditions: 2% permethrin paper
Description: as §2, §3

UGANCYP6P9b [13] = target: T4, UGANCYP6P9b; assay: Pyrethroid depletion (metabolism) assay with recombinant enzyme; type: biochemical; conditions: 20μM insecticide, 1 hour, vs -NADPH
BENCYP6P9a [14] = target: T8, BENCYP6P9a; assay: as above; type: biochemical; conditions: 20μM insecticide, 1 hour, vs -NADPH
Description: (§6) Membrane expressing recombinant CYP6P9a/-b and AgCPR, and reconstituted cytochrome b5 were added to the side of the tube and pre-incubated for 5 minutes at 30°C, with shaking at 1,200 rpm to activate the membrane. 20μM of test insecticide was then added into the final volume of 0.2ml (~2.5% v/v methanol), and reaction started by vortexing at 1,200 rpm and 30°C for 1 hour. Reactions were quenched with 0.1ml ice-cold methanol and incubated for 5 more minutes. Tubes were then centrifuged at 16,000 rpm and 4°C for 15 minutes, and 150μl of supernatant transferred into HPLC vials for analysis. Reactions were carried out in triplicates with experimental samples (+NADPH) and negative controls (-NADPH). 100μl of sample was loaded onto an isocratic mobile phase (90:10 v/v methanol to water) with a flow rate of 1ml/min, monitoring wavelength of 226nm and peaks separated with a 250mm C18 column (Acclaim 120, Dionex) on Agilent 1260 Infinity at 23°C. Enzyme activity was calculated as percentage depletion (the difference in the amount of insecticide(s) remaining in the +NADPH tubes compared with the–NADPH) and a t-test used for statistical analysis.

UGANCYP6P9a [15] = target: T6, UGANCYP6P9a; assay: as above; type: biochemical; conditions: 20μM insecticide, 1 hour, vs -NADPH
Description: as §6

MALCYP6P9a [16] = target: T7, MALCYP6P9a; assay: as above; type: biochemical; conditions: 20μM insecticide, 1 hour, vs -NADPH
Description: as §6

[17] = tested on: Val^109Ile mutant of MALCYP6P9b; conditions: 20μM insecticide
Description: (§4) To establish whether allelic variation in CYP6P9a and CYP6P9b impact their metabolic activities toward insecticides, pyrethroids were screened with the recombinant enzymes from these genes. […] Membrane expressing recombinant CYP6P9a/-b and AgCPR, and reconstituted cytochrome b5 were added to the side of the tube and pre-incubated for 5 minutes at 30°C, with shaking at 1,200 rpm to activate the membrane. 20μM of test insecticide was then added into the final volume of 0.2ml (~2.5% v/v methanol), and reaction started by vortexing at 1,200 rpm and 30°C for 1 hour. Reactions were quenched with 0.1ml ice-cold methanol and incubated for 5 more minutes. Tubes were then centrifuged at 16,000 rpm and 4°C for 15 minutes, and 150μl of supernatant transferred into HPLC vials for analysis. Reactions were carried out in triplicates with experimental samples (+NADPH) and negative controls (-NADPH). 100μl of sample was loaded onto an isocratic mobile phase (90:10 v/v methanol to water) with a flow rate of 1ml/min, monitoring wavelength of 226nm and peaks separated with a 250mm C18 column (Acclaim 120, Dionex) on Agilent 1260 Infinity at 23°C.
(§5) In addition, fluorescent probes were also screened to establish differences in the O-dealkylation activity of the mutants compared with the wild type enzyme. All in vitro and kinetic analyses were conducted as described above. […]

[18] = tested on: Asp^335Glu mutant of MALCYP6P9b; conditions: 20μM insecticide
Description: as §4, §5

MALCYP6P9b [19] = target: T5, MALCYP6P9b; assay: Pyrethroid depletion (metabolism) assay with recombinant enzyme; type: biochemical; conditions: 20μM insecticide, 1 hour, vs -NADPH
Description: as §6

FANGCYP6P9b [20] = target: T1, FANGCYP6P9b; assay: as above; type: biochemical; conditions: 20μM insecticide, 1 hour, vs -NADPH
Description: (§7) To establish whether allelic variation in CYP6P9a and CYP6P9b impact their metabolic activities toward insecticides, pyrethroids were screened with the recombinant enzymes from these genes. […] Membrane expressing recombinant CYP6P9a/-b and AgCPR, and reconstituted cytochrome b5 were added to the side of the tube and pre-incubated for 5 minutes at 30°C, with shaking at 1,200 rpm to activate the membrane. 20μM of test insecticide was then added into the final volume of 0.2ml (~2.5% v/v methanol), and reaction started by vortexing at 1,200 rpm and 30°C for 1 hour. Reactions were quenched with 0.1ml ice-cold methanol and incubated for 5 more minutes. Tubes were then centrifuged at 16,000 rpm and 4°C for 15 minutes, and 150μl of supernatant transferred into HPLC vials for analysis. Reactions were carried out in triplicates with experimental samples (+NADPH) and negative controls (-NADPH). 100μl of sample was loaded onto an isocratic mobile phase (90:10 v/v methanol to water) with a flow rate of 1ml/min, monitoring wavelength of 226nm and peaks separated with a 250mm C18 column (Acclaim 120, Dionex) on Agilent 1260 Infinity at 23°C. Enzyme activity was calculated as percentage depletion (the difference in the amount of insecticide(s) remaining in the +NADPH tubes compared with the–NADPH) and a t-test used for statistical analysis.

[21] = target: wild type recombinant MALCYP6P9b (wrMALCYP6P9b) (Anopheles funestus, UniProt B5AII7)
Description: as §1
In addition, fluorescent probes were also screened to establish differences in the O-dealkylation activity of the mutants compared with the wild type enzyme. All in vitro and kinetic analyses were conducted as described above. However, as different mutants expressed with varying concentrations all assays were conducted within linear range, with the amount of enzyme and time which produced highest activities.

BENCYP6P9b [22] = target: T3, BENCYP6P9b; assay: Pyrethroid depletion (metabolism) assay with recombinant enzyme; type: biochemical; conditions: 20μM insecticide, 1 hour, vs -NADPH
Description: as §7

FANGCYP6P9a [23] = target: T2, FANGCYP6P9a; assay: as above; type: biochemical; conditions: 20μM insecticide, 1 hour, vs -NADPH
Description: as §6

CC1(C)C(C=C(Cl)Cl)C1C(=O)OCc1cccc(Oc2ccccc2)c1 (centres unmarked) [permethrin]
Kcat (FANGCYP6P9b [1]): 0.075 ± 0.0225 s⁻¹
Km (FANGCYP6P9b [1]): 20.5 ± 8.31 µM
Kcat (FANGCYP6P9a [2]): 0.0825 ± 0.032 s⁻¹
Kcat (BENCYP6P9b [3]): 15.91±5.45^b min^-1
Kcat, fold higher than FANGCYP6P9b (BENCYP6P9b [3]; BENCYP6P9b vs FANGCYP6P9b): 4 fold
Kcat (UGANCYP6P9b [4]): 8.61±3.40^b min^-1
Kcat, fold higher than FANGCYP6P9b (UGANCYP6P9b [4]; UGANCYP6P9b vs FANGCYP6P9b): 2 fold
Kcat (MALCYP6P9b [5]): 12.38±4.5^b min^-1
Km (MALCYP6P9b [5]): 12.7 ± 2.68 µM
Kcat, fold higher than FANGCYP6P9b (MALCYP6P9b [5]; MALCYP6P9b vs FANGCYP6P9b): 3 fold
catalytic efficiency, fold more efficient than FANGCYP6P9b (MALCYP6P9b [5]; MALCYP6P9b vs FANGCYP6P9b): 5 fold
Kcat (UGANCYP6P9a [6]): 0.122 ± 0.017 s⁻¹
Kcat, fold higher than FANGCYP6P9a (UGANCYP6P9a [6]; UGANCYP6P9a vs FANGCYP6P9a): 2 fold
catalytic efficiency, fold higher than FANGCYP6P9a (UGANCYP6P9a [6]; UGANCYP6P9a vs FANGCYP6P9a): 3 fold
Kcat (MALCYP6P9a [7]): 15.41±6.30^a min^-1
Km (MALCYP6P9a [7]): 18.8 ± 11.8 µM
Kcat, fold higher than FANGCYP6P9a (MALCYP6P9a [7]; MALCYP6P9a vs FANGCYP6P9a): 3 fold
catalytic efficiency, fold higher than FANGCYP6P9a (MALCYP6P9a [7]; MALCYP6P9a vs FANGCYP6P9a): 6 fold
Kcat (BENCYP6P9a [8]): 9.37±3.32^a min^-1
Kcat, fold higher than FANGCYP6P9a (BENCYP6P9a [8]; BENCYP6P9a vs FANGCYP6P9a): 2 fold
catalytic efficiency, fold higher than FANGCYP6P9a (BENCYP6P9a [8]; BENCYP6P9a vs FANGCYP6P9a): 3 fold
mortality ([9]; 2 hrs): 30%
mortality ([9]; 3 hrs): ~ 60%
mortality ([9]; 6 hrs): ~ 70%
mortality ([10]; 12 hrs): 55%
mortality ([10]; 24 hrs): ~ 60%
mortality ([11]; 12 hrs): < 30%
mortality ([11]; 24 hrs): ~ 30%
mortality ([12]; 2 hrs): less than 10%
mortality ([12]; 3 hrs): < 30%
mortality ([12]; 6 hrs): < 45%
Percentage depletion (UGANCYP6P9b [13]): 88.58±3.48 %
Percentage depletion (BENCYP6P9a [14]): 66.42±2.23 %
Percentage depletion (UGANCYP6P9a [15]): 60.71±0.92 %
Percentage depletion (MALCYP6P9a [16]): 65.38±1.5 %
fold less depletion than wrMALCYP6P9b [17]: 2 fold
fold less depletion than wrMALCYP6P9b [18]: 2.15 fold
Percentage depletion (MALCYP6P9b [19]): more than 90%
Percentage depletion (MALCYP6P9b [19]; listed as Permethrin): 91.6±2.5 %
Percentage depletion (FANGCYP6P9b [20]): 13.7±4.23%
Kcat [21]: 0.1317 ± 0.0138 s⁻¹
Km [21]: 10.3 ± 2.38 µM
Percentage depletion (BENCYP6P9b [22]): 89.63±0.63 %
Percentage depletion (FANGCYP6P9a [23]): 29.0±1.42%

Source: paper PMC4627800, “Allelic Variation of Cytochrome P450s Drives Resistance to Bednet Insecticides in a Major Malaria Vector” (PLoS Genetics, 2015)
